Data on three compounds can be found in US20230381237A1, “CHIMERIC ANTIGEN RECEPTOR (CAR) T-CELL ADJUVANT THERAPIES” (priority 2022, published 2023).

For data set [1], the system named is CD19 CAR T-cells co-cultured with CD19+Raji lymphoma target cells. Put plainly: CD19 CAR T-cell / Raji co-culture, pro-inflammatory cytokine levels. The class given is cell-based, human.
A short description of data set [2]: Pharmacokinetics in African Green Monkeys, TID oral gavage. Type of data set: in vivo. How it is done:
(§1) Individual Animal Metrics—Nine African green monkeys (approximately 16 years old, wild-caught) were used in this PK study. Per requirements of the CDC, all animals were quarantined at a CDC facility for 30 days followed by a 90-day quarantine/acclimation period at TNPRC prior to study initiation. Animals were dosed three times daily (TID) by oral gavage in three separate rounds of the study (ascending dose concentrations). Individual animal weights were tracked throughout the entirety of the study. On average, weights decreased 5.5% across all cohorts, with no individual animal losing more than 8.7% of its initial body weight over the course of the study. No difference in mean weight change is observed between male and female monkeys. […] Ultimately, the animals handled the schedule well, all remaining in good health with a weight loss of no more than what was expected by the veterinary staff with the schedule intensity.
Individual animal profiles were evaluated following each dose on a single day of dosing. Single day TID doses were administered using the same animals following a minimum of 7 days wash out between increasing dose level rounds, where Round 1 was TID 0.008 mg/kg/day (0.00267 mg/kg/dose), Round 2 was TID 0.04 mg/kg/day (0.0133 mg/kg/dose), and Round 3 was TID 0.2 mg/kg/day (0.0667 mg/kg/dose). Wash out (negative) plasma levels of CTO1681 between dose rounds were confirmed. […] Samples were collected at the following target timepoints relative to the first TID dose of the day: 0.25, 0.5, 1, 2, 4, and 8 hours (prior to second daily dose), 8.25, 8.5, 9, 10, 12, and 16 hours (prior to third daily dose), 16.25, 16.5, 17, 18, 20, 24, 28 and 40 hours after TID test item administration by oral gavage dosing, with the three daily doses administered at 0, 8 and 16 h in 9 animals, staggered for n=3 collection after administration of each daily dose. […]

Another data set has as its system CD19+Raji tumor cells. As to the kind of experiment: CD19 CAR T-cell killing of Raji target cells (flow cytometry, 7-AAD). Type of data set: cell-based, human. Conditions: in vitro; Effector:Target 10:1, 5:1, 1:1; all concentrations; monosodium salt.
A short description of data set [3]: Example 4: treatment with predetermined delay period. Type of data set: in vivo, human. Conditions: mantle cell lymphoma; start three days after CAR T-cells, eleven days. The text has this:
Both groups will receive infusion of CAR T-cells. […] Cytokines will be monitored daily for both groups.

For another data set, the system named is influenza (H5N1). Conditions: in vivo; cited from earlier work.
Data set [4] can be described thus: Example 5: treatment with monitored delay period. The class given is in vivo, human. Conditions: acute myeloid leukemia; start upon cytokine increase, ten days. From the text: Both groups will receive infusion of CAR T-cells. Cytokines will be monitored daily for both groups. […] Treatment with CTO1681 will continue daily for ten days.
A short description of data set [5]: Example 2: mouse model of CAR T-cell therapy induced CRS. Conditions: IP, BID for 7 days.
A short description of another data set: Food effect. The class given is in vivo. Conditions: oral tablets.
Data set [6] in a line: Single dose PK study in BALB/C mice. The class given is in vivo, murine (BALB/C).
A short description of data set [7]: Phase 1 multiple ascending, repeat-dosing study in healthy volunteers.
Data set [8] can be described thus: BID dose PK study in NSG mice (CAS-2201). Type of data set: in vivo, murine (NSG).
The nature of data set [9]: Body weight and tolerability in African green monkey PK study. The class given is in vivo, African green monkeys. The method, then:
as §1

For a further data set, the system named is influenza (H1N1). Put plainly: In vivo lethal influenza H1N1 studies, cytokine levels. The arrangement: species or system mice.
In another data set the test system is Raji-luc tumor cells. Put plainly: CAR T-cell efficacy in NSG tumor bearing mice. Type of data set: in vivo. The method, then:
Human T-cells expressing CD19-CD28-CD3Z CAR construct was used in this experiment.
6-7 week old NSG™ (NOD SCID gamma) mice were engrafted with 1×10^6 luciferase (luc) expressing Raji tumor cells (herein referred to as “Raji-luc” tumor cells) each on Day 1 to allow for tumor growth over a 7-day period prior to the commencement of the treatment. CAR T-cell infusion was performed intravenously via lateral tail vein on (5×10^6 CD19 CAR T-cells generated from healthy donors). NSG mice are severely immunodeficient, which facilitates ready tumor engraftment and subsequent clearance due to CAR T-cells can be measured.
Tumor growth after engraftment and subsequent clearance were monitored once weekly (starting on Day 7) using IVIS imaging to detect luciferase signal in living mice. […] CTO1681 doses were selected based on the pharmacokinetic profile of the drug in mice. Control groups included mice receiving Raji-luc tumor cells without CAR T-cell treatment, mice receiving Raji-luc tumor cells and a CAR T-cell infusion, and mice receiving Raji-luc tumor cells with vehicle treatments. Mice were monitored for body temperature and health evaluations (weight, movement, posture, fur condition, etc.) throughout the entire study.

The test system of data set [10] is PBMCs activated through TLR-3. As to the kind of experiment: TNFα production in Poly r(I:C)-activated PBMCs (sandwich ELISA). Conditions: 0.3 nM to 750 nM. Background: An ELISA detects its analyte on a solid surface through an enzyme-linked reagent.
Data set [11] has as its system circulating cytokines (TNFα). As to the kind of experiment: Serum cytokine measurements after CTO1681 treatment in African Green Monkeys. Type of data set: in vivo. Conditions: highest dose of CTO1681 compared to the other two cohorts. The text has this: Longitudinal serum samples were taken through the course of the observation period. At the end of all three cohorts serum samples were utilized to determine circulating concentrations of 12 different cytokines. Representative data is pictured below for TNFα, a key central cytokine in CRS (FIG. 6). […] Overall there appears to be a dose-dependent trend to cytokine reduction.

The nature of data set [12]: Example 3: human treatment with no delay period. Type of data set: in vivo. Conditions: B-cell lymphoma, daily for 7-15 days. From the text: Both groups will receive infusion of CAR T-cells. […] Clinical signs of CRS and cytokines will be monitored daily for both groups.
For the next data set, the system named is TNF-α. Conditions: patients with diabetes; doses within dose equivalencies of CTO1681 MAD study; cited from earlier work.
Where [13] appears, read: 10:1 ratio of Effectors to Target cells, CTO1681 0.36-225 nM, 24 hours.
The mark [14] stands for this setting: CytoAgents in vivo influenza (H1N1) studies.

pEC50: −log10 of the molar value. “Also recorded” adds a separate entry of the source.

One may read the Tmax as the time from dosing to the highest level. In general, pEC50 refers to −log10 of the EC50, conventionally taken in molar units. Consider `CC#CC[C@H](C)[C@H](O)/C=C/[C@@H]1[C@H]2c3cccc(CCCC(=O)[O-])c3O[C@H]2C[C@H]1O.[Na+]` [CTO1681, (+)-[1R, 2R, 3aS, 8bS]-2,3,3a,8b-tetrahydro-2-hydroxy-1-[(E)-(3S,4S)-3-hydroxy-4-methyl-1-octen-6-ynyl)-1Hcyclopenta[b]benzofuran-5-butanoic acid, monosodium salt], for which, in [1] (setting [13]), the “Maximum reduction of IFN-γ” value is recorded as ~26%, the “Maximum reduction of TL-6” value is given as ~23% and the “Maximum reduction of TNF-α” value is “approximately 50%”. Also, in data set [1] (CAR T-cells and Raji cells at a 10:1 ratio (FIG. 1A)), the “Levels of IL-6” value was “dose-dependently lowers”. Also, the “Levels of TNF-α” value in data set [1] (CAR T-cells and Raji cells at a 10:1 ratio (FIG. 1B)) is on record as “dose-dependently lowers”. For the same compound, the “Levels of IFN-γ” value in data set [1] (CAR T-cells and Raji cells at a 10:1 ratio (FIG. 1C)) was “dose-dependently lowers”. Further, the Tmax in [2] (round 1, 0.008 mg/kg/day TID oral) stood at 1.5 h. For the same compound, the Tmax in [2] (round 2, 0.04 mg/kg/day TID oral) is 2.0 h. In [2] (round 3, 0.2 mg/kg/day TID oral), the time of peak concentration (Tmax) came to 2.1 h. Moreover, in the data set with CD19+Raji tumor cells, the “Effect on tumor/target cell killing of CD19-directed CAR T-cells” value is recorded as “absence of an effect; also recorded: did not impact or interfere”. For the same compound, in data set [3], the “CRS symptoms vs control group” value is listed as “reduced CRS symptoms” and the “Undesired cytokine production vs control group” value is recorded as “lower undesired cytokine production”. In the data set with influenza (H5N1), the IL-2 level result is on record as “reduced”, the IL-6 level result was “reduced”, the IL-8 level result was “reduced” and the IL-10 level entry was “reduced”. In [4], the “CRS symptoms vs control group” value is “reduced CRS symptoms” and the “Undesired cytokine production vs control group” value is recorded as “lower undesired cytokine production”. Besides, in [5], the Comparison with dexamethasone result was “superior to dexamethasone” and the “Survival benefits over dexamethasone” value was “greater survival benefits”. Besides, the Food effect result in the data set “Food effect” is recorded as “positive food effect”. Besides, in [6], the T1/2 lay within 1 to 2 h. In addition, the “Cytokine levels (panel of 27 cytokines)” value in data set [7] is recorded as “no clinically significant decreases”. Further, in data set [7] (15 to 60 μg/day, 7 days), the “SAEs, TEAEs of special interest, TEAEs leading to study discontinuation or dose reduction” value is on record as “No SAEs”; the “Treatment-emergent AEs, mild” value is 62 AEs; the “Treatment-emergent AEs, moderate” value was found to be 4 AEs. Moreover, in data set [8] (calculated using first daily dose, range of 6-12 h (Rsq=0.40)), the Elimination half-life is reported as 1.8 h. The “T1/2 of BID exposure” value in data set [8] (two times a day (BID) dose) is recorded as “approximately 5 hours”. For the same compound, in [9] (TID oral administration, 0.008-0.2 mg/kg/day, monosodium salt), the “Tolerability / toxicities or negative health effects” value is recorded as “overall tolerable; also recorded: no toxicities or negative health effects”. Further, in [9] (entire study), the “Average weight decrease across all cohorts” value was found to be 5.5% and the “Largest individual loss of initial body weight” value was ≤ 8.7%. Also, in the data set with influenza (H1N1) (setting [14]), the IL-2 level entry is “reduced”, the IL-6 level result is on record as “reduced” and the IL-10 level result is recorded as “reduced”. Moreover, in the data set with influenza (H1N1) (lethal H1N1 influenza infections), the IFN-α concentrations entry is reported as “no significant repression”. Besides, in the data set with Raji-luc tumor cells (0.3, 0.2 or 0.15 mg/kg/d BID for 14 days, Day 15, monosodium salt), the “Effect on CD19 CAR T-cell activity (reduction of lymphoma tumor burden)” value is “does not interfere; also recorded: did not affect”. In addition, in the data set on Raji-luc tumor cells (NSG mice, with CAR T-cell therapy), the “Clinical morbidities, including weight loss or limb movement” value is “did not cause any increase”. For the same compound, the pEC50 in data set [10] (Replicate 1) was 8.24. Besides, the pEC50 in [10] (Replicate 2) is 8.38. In data set [10] (Replicate 3), the negative logarithm of the EC50 (pEC50) was 8.71. Also, the “Cytokine levels in serum (TNFα representative)” value in data set [11] is “remarkable and consistent reduction”. In [12], the “CRS symptoms vs control group” value is “reduced CRS symptoms” and the “Undesired cytokine production vs control group” value is recorded as “lower undesired cytokine production”.

Take `CC#CCC(C)C(O)C=CC1C(O)CC2Oc3c(CCCC(=O)[O-])cccc3C21.[Na+]` (centres unmarked) [beraprost sodium, 2,3,3a,8b-tetrahydro-2-hydroxyl-1-(3-hydroxyl-4-methyl-1-octen-6-ynyl)-1H-cyclopenta[b]benzofuran-5-butanoic acid, sodium salt]: the TNF-α entry in the data set with TNF-α is “significant reductions”.

As for `CC#CCC(C)[C@H](O)/C=C/[C@@H]1[C@H]2c3cccc(CCCC(=O)O)c3O[C@H]2C[C@H]1O` (some centres unmarked) [Beraprost, reference compound], the pEC50 in [10] (PBMC, Replicate 1) was 7.77; in data set [10] (PBMC, Replicate 2), 8.06; in data set [10] (PBMC, Replicate 3) it was 7.77.
